Experimental data published in patent US20080071005A1, “Environment-Friendly Pollution-Proof Agent” (priority 2004, published 2008).
Read-outs that look alike come from different tables or passages of the source.

Key:
[1] = system: spores of Enteromorpha prolifera and Ulva pertusa; assay: prevention of the attachment of fouling algae (summary)
Method: The effect of the extracts on the prevention of the attachment of fouling algae was tested using the spores of Enteromorpha prolifera and Ulva pertusa, which are typical fouling algae.

mice = assay: safety test, 10 mg/kg to mice, 7 days observation; type: in vivo; conditions: 10 mg/kg in DMSO/water, 10 mice per group, observed for 7 days
[2] = safety test, oral and transdermal toxicity in rabbits; conditions: rabbit, in vivo
Enteromorpha spores = assay: inhibitory activity test against the mobility of Enteromorpha spores; type: cell-based; conditions: Brassica extracts and fractions, comparison within the set
Text: In order to investigate inhibitory substances against the mobility of Enteromorpha spores from extracts of Citrus sp., organic solvent fractions were made.
In order to investigate inhibitory substances against the mobility of Enteromorpha spores from extracts of brassica, organic solvent fractions were made.

Aspergillus niger = assay: minimum inhibitory concentration, two-fold serial dilution in nutrient broth; type: cell-based; conditions: 30° C., 48 hours
Text: (§1) A liquid medium obtained by diluting PAGS by two-fold serial dilution was placed on a 96-multiwell plate and inoculated with 10^4 cfu/ml of microorganisms. […] The liquid medium used in the test was a nutrient broth (Difco).

Staphylococcus aureus = assay: as above; type: cell-based; conditions: 30° C., 48 hours
Text: as §1

Compound | antifouling activity [1] | death of the mice (mice) | further results
CC(C)=CCC/C(C)=C/C=O | excellent antifouling activity | – | –
CCCCCCCCO (single isomer, unassigned) [1-octanol] | excellent antifouling activity | no death | –
C=CCN=C=S (single isomer, unassigned) [allyl isothiocyanate] | excellent antifouling activity | no death | –
CCCCCCCCCCCCCCCCCCCC(=O)O [arachadic acid] | excellent antifouling activity | no death | –
C=CC(=C)CCC=C(C)C [beta-myrcene] | excellent antifouling activity | no death | –
CC/C=C\CCOC(C)=O [cis-3-hexenyl acetate] | excellent antifouling activity | – | LD50 ([2]; oral, read-out: LD50 (oral)): > 5000 mg/kg; LD50 ([2]; topical or ocular, transdermal, read-out: LD50 (transdermal)): > 5000 mg/kg; solubility in organic solvent (organic solvent): insoluble in organic solvent; solubility in water (water): insoluble in water; inhibitory activity against the mobility of Enteromorpha spores, in words (Enteromorpha spores): most excellent inhibitory effect
CCCCCCC(=O)OCC [ethyl heptanoate] | excellent antifouling activity | no death | –
C=CCc1ccc(O)c(OC)c1 [eugenol] | excellent antifouling activity | no death | –
methyl caporate | excellent antifouling activity | no death | MIC Aspergillus niger 1:0 (Aspergillus niger; ratio 1:0): 10; MIC Aspergillus niger 3:1 (Aspergillus niger; ratio 3:1): 6; MIC Staphylococcus aureus 1:0 (Staphylococcus aureus; ratio 1:0): 4; MIC Staphylococcus aureus 3:1 (Staphylococcus aureus; ratio 3:1): 5
